Measured values published in US12673028B2, “Therapeutic potential of cellulose-cyclodextrin-curcumin nanocrystals in the treatment of peripheral neuropathies” (UNIVERSITÉ DE LIMOGES, priority 2019, dated 2026).

What was measured:
wild type Schwann cells = assay: In vitro H2O2-induced oxidative stress in Schwann cells; assay type: cell-based, rat; conditions: H2O2 0.1 mM
Method: Schwann cells (SCs) were isolated from sciatic nerves of wild type (WT) male rats as well as 8-week-old CMT1A rats. SCs were cultured in SC culture medium (described in Caillaud et al., 2018): DMEM D-valine+2 mM glutamine (Gibco)+10% fetal calf serum (Gibco)+1% N2 supplement (Gibco)+20 μg/mL bovine pituitary extract+5 μM forskolin (Gibco)+100 U/mL penicillin/streptomycin (Gibco)+250 μg/mL fungizone (Gibco). SCs were identified using immunofluorescent labeling for S-100 protein.
To induce oxidative stress, SCs were subjected to H2O2 (0.1 mM) treatment for 8 hours. Total ROS and mitochondrial superoxide ions were assessed using the CellROX-Green reagent (Life Technologies GmbH) and the mitochondrial superoxide indicator MitoSOX Red (Life Technologies GmbH), respectively, according to the manufacturer's recommendations.

[1] = Bioavailability of curcumin in plasma; assay type: in vivo; conditions: rat, 50 mg/kg
[2] = rats; cited from earlier work

concentration at 0 h [1]: 0 ng/mL | concentration at 1 h [1]: 24.9 ng/mL | concentration at 2 h [1]: 4.3 ng/mL | concentration at 8 h [1]: 0 ng/mL | concentration at 12 h [1]: 0 ng/mL
Structure (SMILES): COc1cc(/C=C/C(=O)CC(=O)/C=C/c2ccc(O)c(OC)c2)ccc1O [Curcumin, curcumin]
Mitochondrial membrane potential Δψm (Rho123) (wild type Schwann cells; 0.001 μM and 0.01 μM): did not reduce the H2O2-induced decrease in Δψm | H2O2-induced mitochondrial ROS (MitoSOX) (wild type Schwann cells; 1 μM, 8 h pretreatment): restored values close to those of the control group | H2O2-induced total ROS (CellROX) (wild type Schwann cells; 1 μM, 8 h pretreatment): reduced H2O2-induced total ROS | H2O2-induced total ROS (CellROX) (wild type Schwann cells; 0.001, 0.01 and 10 μM, 8 h pretreatment): had no antioxidant effect | Oral bioavailability [2]: approximately 1%
